From patent EP0414533A1, “Use of iodopropargyl esters of alpha-amino acid derivatives as antimicrobial agents” (ROHM AND HAAS COMPANY, priority 1989, dated 1991) come the findings set out here.

Experiment [1] has as its system Pythium ultimum (PYU). As to the kind of experiment: In-vitro plant fungicide test. As to conditions: Globisporangium ultimum; 25 ppm; Table IVa; read-out: % Control at 25 ppm PYU. Format: cell-based.
Experiment [2] concerns Piricularia oryzae (PIR). Put plainly: microbe, parasite or virus in culture. To be noted: read-out: % Control at 25 ppm PIR. It is filed as cell-based.
Experiment [3] concerns Botrytis cinerea (BOC). Put plainly: In-vitro plant fungicide test. To be noted: Botrytis cinerea, 25 ppm; Table IVa; *=Phytotoxic; read-out: % Control at 25 ppm BOC. It is filed as cell-based.
Experiment [4] concerns Aspergillus niger (ANIG). Put plainly: Minimum inhibitory concentration (MIC), broth two-fold serial dilution test. As to conditions: Aspergillus niger. Format: cell-based.
Experiment [5] concerns Pseudomonas fluorescens (PSFL). The experiment is described as above. To be noted: Pseudomonas fluorescens, read-out: MIC (G-) PSFL, M9G (minimal salts media with glucose).
Experiment [6] relates to Pseudomonas aerugenosa (PSAE). Described as above. To be noted: Pseudomonas, read-out: MIC (G-) PSAE, M9G (minimal salts media with glucose).
Experiment [7] deals with Fusarium roseum (FUS). As to the kind of experiment: In-vitro plant fungicide test. It is filed as cell-based. To be noted: Table IVa, *=Phytotoxic; for inhibition of growth at 25 ppm: Fusarium sambucinum, read-out: % Control at 25 ppm FUS, 25 ppm.
Experiment [8] has as its system Staphylococcus aureus (SAUR). Put plainly: Minimum inhibitory concentration (MIC), broth two-fold serial dilution test. As to conditions: Staphylococcus aureus, read-out: MIC (G+) SAUR, M9G (minimal salts media with glucose).
In experiment [9] the test system is Cochliobolus sativus (HEL). As to the kind of experiment: In-vitro plant fungicide test. It is filed as cell-based. To be noted: Bipolaris sorokiniana, 25 ppm; Table IVa; *=Phytotoxic; read-out: % Control at 25 ppm HEL.
For experiment [10], the system named is Phytophthora capsici (PHY). As to the kind of experiment: In-vitro plant fungicide test. It is filed as cell-based. To be noted: Phytophthora capsici; 25 ppm; Table IVa; read-out: % Control at 25 ppm PHY.
The test system of experiment [11] is Escherichia coli (ECOL). As to the kind of experiment: Minimum inhibitory concentration (MIC), broth two-fold serial dilution test. To be noted: Escherichia coli, read-out: MIC (G-) ECOL, M9G (minimal salts media with glucose).
From the text: When the test is ready to be done, each vessel in the dilution series, except the first vessel, contains an equal volume of compound free broth. The first vessel contains twice the volume of broth with the starting concentration of test compound. One half of the broth from the first vessel is transferred to the second vessel. After being mixed, one half the resulting volume is removed from the second vessel and transferred to the third vessel. The entire cycle is repeated sufficiently to give a series of concentrations amounting to 500, 250, 125, 63, 31, 16, 8, and 4 ppm (or 100, 50, 25, 12.5, 6.2, 3.1, 1.6, and 0.8), respectively.
Each vessel is then inoculated with a cell suspension of the appropriate test organism. Bacteria are grown in broth, fungi on agar slants for a time and at a temperature appropriate to the species being tested, and algae are a mixture of green algae and blue-green bacteria grown in a nutrient media. At the end of the growth period, in the case of bacteria, the broth is vortexed to disperse the cells.
The vessels are then incubated at the appropriate temperature. After the incubation, the vessels are examined for growth/no growth.
Experiment [12] has as its system THREE FUNGI. Put plainly: MIC test against three fungi in Mycophile Broth, pH 5.0, read after 8 days (Table VII). It is filed as cell-based. As to conditions: 192 h.
Experiment [13] relates to Aureobasidium pullulans (APUL). As to the kind of experiment: Minimum inhibitory concentration (MIC), broth two-fold serial dilution test. It is filed as cell-based. To be noted: Aureobasidium pullulans.
Experiment [14] relates to Xanthomonas campestris (XAN). As to the kind of experiment: In-vitro plant fungicide test. Format: cell-based. As to conditions: Xanthomonas campestris; 25 ppm; Table IVa; read-out: % Control at 25 ppm XAN.
For experiment [15], the system named is Septoria nodorum (SEP). Put plainly: In-vitro plant fungicide test. Format: cell-based. As to conditions: 25 ppm, Table IVa; for inhibition of growth at 25 ppm: Parastagonospora nodorum, read-out: % Control at 25 ppm SEP.
Experiment [16] concerns Rhizoctonia solani (RHI). As to the kind of experiment: In-vitro plant fungicide test. Format: cell-based. As to conditions: Rhizoctonia solani; 25 ppm; Table IVa; read-out: % Control at 25 ppm RHI.
Where [17] appears, read: Aspergillus niger, pH 5, read-out: MIC ANIG, Aspergillus niger, serial dilutions from 50 ppm, read after 8 days of incubation.
The mark [18] stands for this setting: Aureobasidium pullulans, pH 5, read-out: MIC APUL, Aureobasidium pullulans, serial dilutions from 50 ppm, read after 8 days of incubation.
Where [19] appears, read: Gloeophyllum trabeum, pH 5, read-out: MIC GTRA, Gloeophyllum trabeum, serial dilutions from 50 ppm, read after 8 days of incubation.
The mark [20] stands for this setting: read-out: MIC (F) ANIG, M9G (minimal salts media with glucose), Table IIIc, iodopropargyl esters of peptides.
Where [21] appears, read: Table IIIc, iodopropargyl esters of peptides.
Where [22] appears, read: read-out: MIC (F) APUL, M9G (minimal salts media with glucose), Table IIIc, iodopropargyl esters of peptides.
Where [23] appears, read: Aspergillus niger, serial dilutions from 50 ppm, read after 8 days of incubation, read-out: MIC ANIG.
[24] abbreviates: Aureobasidium pullulans, serial dilutions from 50 ppm, read after 8 days of incubation, read-out: MIC APUL.
The mark [25] stands for this setting: Gloeophyllum trabeum, serial dilutions from 50 ppm, read after 8 days of incubation, read-out: MIC GTRA.
Where [26] appears, read: M9G (minimal salts media with glucose), Table IIIa, read-out: MIC (F) ANIG.
The mark [27] stands for this setting: M9G (minimal salts media with glucose), Table IIIa, read-out: MIC (F) APUL.

Values after ≈ are worked out from the molar mass of the structure shown. Structures can show the parent of a compound that is named as a salt. Where two headings read alike, the source gives them in different places.

Broadly, the MIC is the lowest concentration that inhibits growth of the organism. For the compound `C[C@@H](OCc1ccccc1)[C@H](N)C(=O)OCC#CI` [Compound 11, O-benzyl-L-threonine iodopropargyl ester trifluoroacetate], the inhibition of growth at 25 ppm in experiment [1] amounted to 100%; in experiment [2] it was 100%; in [3], 0%; in experiment [7], 100%; in experiment [9] it was 95%; in experiment [10] it was 100%. In addition, the inhibition of growth at 25 ppm in experiment [14] worked out at 0%; in experiment [15], 100%; in experiment [16], 100%. For the same compound, the MIC in [4] (read-out: MIC (F) ANIG, M9G (minimal salts media with glucose), Table IIIa) is 6.3 µg/mL; in [5] (Table IIIa), more than 100 µg/mL; in experiment [6] (Table IIIa), more than 100 µg/mL; in experiment [8] (Table IIIa) it was more than 100 µg/mL; in [11] (Table IIIa) it was more than 100 µg/mL; in experiment [12] (setting [17]), 25 µg/mL. In addition, the MIC was 50 µg/mL in experiment [12] (setting [18]); 12.5 µg/mL in [12] (setting [19]); 3 µg/mL in experiment [13] (read-out: MIC (F) APUL, M9G (minimal salts media with glucose), Table IIIa).
Turning to `C[C@H](N)C(=O)N[C@@H](CSCc1ccccc1)C(=O)OCC#CI` [Compound 20, L-alanyl-S-benzyl-L-cysteine iodopropargyl ester trifluoroacetate], the inhibition of growth at 25 ppm in experiment [1] stood at 100%; in experiment [2], 100%; in experiment [3], 0%; in [7] it was 100%; in [9], 100%; in [10], 100%. Further, the inhibition of growth at 25 ppm was found to be 0% in experiment [14], 100% in [15] and 100% in experiment [16]. The MIC in experiment [4] (setting [20]) is less than 0.8 µg/mL; in experiment [5] (setting [21]), 100 µg/mL; in experiment [6] (setting [21]) it was 100 µg/mL; in experiment [8] (setting [21]) it was 100 µg/mL; in experiment [11] (setting [21]), 100 µg/mL; in experiment [12] (setting [17]) it was 50 µg/mL. Also, the MIC in experiment [12] (setting [18]) was 50 µg/mL; in [12] (setting [19]) it was 12.5 µg/mL; in [13] (setting [22]) it was less than 0.8 µg/mL.
Turning to `C[C@H](NC(=O)CNC(=O)OC(C)(C)C)C(=O)OCC#CI` [Compound 27, N-t-butoxycarbonylglycyl-L-alanine iodopropargyl ester], the inhibition of growth at 25 ppm amounted to 100% in experiment [1]; 0% in experiment [2]; 75% in [3]; 100% in experiment [7]; 100% in experiment [9]; 0% in experiment [14]. Moreover, the inhibition of growth at 25 ppm in experiment [15] and in experiment [16] was 100% throughout. Also, the MIC is less than 4 µg/mL in experiment [4] (M9G (minimal salts media with glucose), Table IIIc, iodopropargyl esters of peptides, read-out: MIC (F) ANIG); 125 µg/mL in experiment [5] (setting [21]); 250 µg/mL in experiment [6] (setting [21]); 125 µg/mL in [8] (setting [21]); 250 µg/mL in [11] (setting [21]); 25 µg/mL (≈ 60.9 µM) in experiment [12] (setting [23]). Besides, the MIC in experiment [12] (setting [24]) worked out at 50 µg/mL (≈ 122 µM); in [12] (setting [25]), 6.2 µg/mL (≈ 15.1 µM); in experiment [13] (M9G (minimal salts media with glucose), Table IIIc, iodopropargyl esters of peptides, read-out: MIC (F) APUL) it was 8 µg/mL.
For `C[C@H](N)C(=O)NCC(=O)OCC#CI` [Compound 17, L-alanylglycine iodopropargyl ester trifluoroacetate], the inhibition of growth at 25 ppm is 100% in [1]; 100% in experiment [2]; 75% in experiment [3]; 100% in [7]; 50% in [9]; 100% in experiment [10]. Besides, the inhibition of growth at 25 ppm was found to be 0% in experiment [14], 75% in experiment [15] and 100% in experiment [16]. Besides, the minimum inhibitory concentration (MIC) in experiment [4] (setting [20]) is less than 0.8 µg/mL; in [5] (setting [21]), 100 µg/mL; in experiment [6] (setting [21]) it was 100 µg/mL; in experiment [8] (setting [21]), 100 µg/mL; in experiment [11] (setting [21]), 100 µg/mL; in experiment [12] (setting [17]), 12.5 µg/mL. In addition, the minimal inhibitory concentration (MIC) was 50 µg/mL in experiment [12] (setting [18]), 25 µg/mL in experiment [12] (setting [19]) and less than 0.8 µg/mL in [13] (setting [22]).
As for `CC(C)(C)OC(=O)N[C@@H](COCc1ccccc1)C(=O)OCC#CI` [Compound 3, N-t-butoxycarbonyl-O-benzyl-L-serine iodopropargyl ester], the inhibition of growth at 25 ppm stood at 100% in [1]; 100% in [2]; 0% in experiment [3]; 100% in [7]; 100% in experiment [9]; 100% in experiment [10]. For the same compound, the inhibition of growth at 25 ppm turned out to be 0% in [14], 100% in experiment [15] and 100% in experiment [16]. For the same compound, the minimal inhibitory concentration (MIC) is 3 µg/mL in experiment [4] (setting [26]); more than 100 µg/mL in experiment [5] (Table IIIa); more than 100 µg/mL in experiment [6] (Table IIIa); 25 µg/mL in experiment [8] (Table IIIa); more than 100 µg/mL in [11] (Table IIIa); 25 µg/mL (≈ 54.4 µM) in experiment [12] (setting [23]). The figures for the minimum inhibitory concentration (MIC) in experiment [12] (setting [24]), in [12] (setting [25]) and in [13] (setting [27]) were 50 µg/mL (≈ 109 µM), 3.2 µg/mL (≈ 6.97 µM) and less than 0.8 µg/mL, respectively.
`CC(C)(C)OC(=O)N[C@@H](CSCc1ccccc1)C(=O)OCC#CI` [Compound 4, N-t-butoxycarbonyl-S-benzyl-L-cysteine iodopropargyl ester]: the inhibition of growth at 25 ppm is 100% in experiment [1]; 100% in [2]; 95% in experiment [7]; 100% in [10]; 0% in [14]; 100% in experiment [15]. For the same compound, the inhibition of growth at 25 ppm in [16] amounted to 100%. The minimal inhibitory concentration (MIC) in experiment [4] (setting [26]) was 3 µg/mL; in experiment [5] (Table IIIa), more than 10 µg/mL; in experiment [6] (Table IIIa) it was more than 100 µg/mL; in [8] (Table IIIa), 25 µg/mL; in experiment [11] (Table IIIa), more than 100 µg/mL; in [12] (setting [23]), 50 µg/mL (≈ 105 µM). For the same compound, the minimum inhibitory concentration (MIC) in experiment [12] (setting [24]) was determined as 50 µg/mL (≈ 105 µM); in experiment [12] (setting [25]) it was 6.2 µg/mL (≈ 13 µM); in [13] (setting [27]), 3 µg/mL. Also, in [7] (25 ppm), the “% Control at 25 ppm FUS” value is on record as 100%.
As to `C[C@@H](OCc1ccccc1)[C@H](NC(=O)OC(C)(C)C)C(=O)OCC#CI` [Compound 5, N-t-butoxycarbonyl-O-benzyl-L-threonine iodopropargyl ester], the inhibition of growth at 25 ppm in [1] was determined as 0%; in experiment [2], 100%; in experiment [7] it was 95%; in [10], 50%; in experiment [14], 0%; in experiment [15], 90%. Further, the inhibition of growth at 25 ppm in experiment [16] turned out to be 100%. Further, the MIC in [4] (setting [26]) was 25 µg/mL; in experiment [5] (Table IIIa), more than 100 µg/mL; in experiment [6] (Table IIIa), more than 100 µg/mL; in [8] (Table IIIa) it was 63 µg/mL; in experiment [11] (Table IIIa) it was more than 100 µg/mL; in experiment [12] (setting [23]), more than 50 µg/mL. Further, the minimum inhibitory concentration (MIC) in experiment [12] (setting [24]) was more than 50 µg/mL; in experiment [12] (setting [25]), 6.2 µg/mL (≈ 13.1 µM); in experiment [13] (setting [27]), less than 0.8 µg/mL. In addition, the “% Control at 25 ppm SEP” value in [15] was 75%.
